Laboratory results: US7625838B2, “[1, 2, 4] Triazolo [1, 5-A] pyrimidine derivatives as chromatographic adsorbent for the selective adsorption of IGG” (GE Healthcare Bio-Sciences AB, priority 2005, dated 2009)

Key:
Type in all cases: binding
[1] = test system: monoclonal antibody (IgG); assay: SPR screen, monoclonal antibody
Protocol: (§1) The screening procedure was based on in vitro screening using two independent in solution analytical techniques relying on saturation difference transfer NMR (STD NMR) and Surface Plasmon Resonace (SPR) methods.
(§2) In the SPR screen 53 compounds were tested (non-soluble substances were excluded) for affinity towards a monoclonal antibody and a commercially available Fc-fragment. Analysis data were corrected for the different molecular weights and are presented as percentage of the theoretical maximal response.
(§3) In order to select potential candidates for further investigations SPR data were arranged in such a way that all substances with a response higher than 10% for both Fc fragment and IgG were selected as potential candidates. These compounds were compared with the ones indicated by the NMR-screening. It turned out that most of the SPR derived hits had been rejected in NMR screen due to unspecific binding towards α-amylase.
(§4) Further structures (commercially available compounds) surrounding compound I were investigated in solution in order to optimize the affinity ligand candidate. These compounds were subject to a corresponding SPR and NMR analysis for affinity as was presented above. However this time only the Fc-fragment was used in the NMR screening while the SPR analysis was performed with the corresponding test proteins as in the first selection.

Fc-fragment = assay: SPR screen, Fc-fragment
Protocol: as §1, §2, §3, §4

[2] = test system: two different monoclonal antibodies (MAbs) and a commercially available Fc-fragment; assay: STD NMR screening for affinity towards IgG related proteins
Protocol: as §1
In the NMR screen 69 substances were tested for affinity towards two different monoclonal antibodies (MAbs) and a commercially available Fc-fragment. Unspecific protein binding was investigated by testing for affinity towards α-amylase. Compounds that were found having affinity towards all three IgG related proteins, but no affinity towards α-amylase were assigned as potential candidates for affinity ligands towards the Fc-part of IgG.
as §4

Structure (SMILES)	ranking for affinity towards IgG molecule as indicated by SPR ([1]; second selection)	ranking for affinity towards Fc-fragment by SPR (Fc-fragment; second selection)	NMR affinity ([2]; second selection, only the Fc-fragment used in the NMR screening)	SPR response, percentage of the theoretical maximal response ([1]; IgG (monoclonal antibody), corrected for molecular weight)	SPR response, percentage of the theoretical maximal response (Fc-fragment; Fc fragment, corrected for molecular weight)	outcome of NMR screen (affinity towards all three IgG related proteins, no affinity towards α-amylase) ([2]; STD NMR, two MAbs and Fc-fragment)
CCOC(=O)c1c[nH]c2ncnn2c1=O [Compound II]	high ranking	at least medium ranking	positive by NMR	–	–	–
CC(=O)Nc1nc2[nH]c(C)c(Cc3ccccc3)c(=O)n2n1 [Compound I]	–	–	–	higher than 10%	higher than 10%	selected as potential affinity candidate by both methods
